Converted amounts (≈) assume the structure as drawn. Like-named read-outs stand apart in the source and are kept apart here. Non-standard residues stand in square brackets, D forms with d. No end group written: not given here. Orn = NCCC[C@H](N)C(=O)O

The values that follow come from PMC11350868, “A Novel Bacitracin-like Peptide from Mangrove-Isolated Bacillus paralicheniformis NNS4-3 against MRSA and Its Genomic Insights” (Antibiotics, 2024).

Data set [1] has as its system MRSA strain 1096. In words: Agar well diffusion assay. The conditions noted are these: 100 µL CFS of 3-day culture in 9 mm wells, controls 30 µg, MH agar, 37 °C, 18 h, mean ± SD, n = 3. In kind it is cell-based, Staphylococcus aureus. The protocol: (§1) The active isolates from the agar overlay assay were inoculated in broth. The types of broth media were the same as those used during the initial isolation. The liquid cultures were incubated at 30 °C with shaking at 150 rpm for 18 h. The optical density of the starter culture was adjusted to a turbidity of 0.1 OD at 625 nm with 0.85% sterile NaCl solution before transferring 1 mL of the culture into 49 mL of fresh broth. The inoculum was then incubated at 30 °C and 150 rpm for 3 days. The cell-free supernatant (CFS) was collected by centrifugation at 10,000× g at 4 °C for 15 min and filtered using a 0.2 µm sterile cellulose acetate syringe filter (Sigma-Aldrich, Warren, MI, USA). The antibacterial activity of the isolates was studied using S. aureus TISTR 517, obtained from the Thailand Institute of Scientific and Technological Research (TISTR), Thailand. The three strains of MRSA (strains 142, 1096, and 2468) were kindly provided by the medical technology laboratory of the School of Allied Health Sciences, Walailak University, Thailand. The pathogenic bacteria were incubated at 37 °C for 18 h on MH agar. The microbial indicators were prepared to a turbidity equivalent to 0.1 OD at 625 nm before being spread on MH agar. The CFS of 100 µL was aseptically transferred to 9 mm diameter wells, followed by an incubation period at 37 °C for 18 h. Cefoxitin (30 µg) and vancomycin (30 µg) (Sigma-Aldrich Co., St. Louis, MO, USA) were employed as positive controls. The experiment was conducted in triplicate and the mean ± SD of the diameters of the inhibition zones was measured.
(§2) The sample was incubated at 30 °C with shaking at 150 rpm for 7 days. The OD at 625 nm of the inoculum was measured and the CFS was collected at 0, 4, 8, 12, 16, 20, and 24 h on the first day of incubation and then once a day until the seventh day of incubation. The bacterial growth was observed by measuring OD at 625 nm and the collected CFS at all time points was evaluated for antibacterial activity using the agar well diffusion assay against S. aureus TISTR 517 and three strains of MRSA. The experiment was performed in triplicate. […] The kinetics of the antimicrobial compounds’ production curve with mean ± SD were presented.
Background: Agar diffusion results depend on both activity and mobility in agar.

In data set [2] the test system is MRSA strain 142. As to the kind of experiment: Agar well diffusion assay. Format: cell-based, Staphylococcus aureus. To be noted: 100 µL CFS of 3-day culture in 9 mm wells, controls 30 µg, MH agar, 37 °C, 18 h, mean ± SD, n = 3. The protocol: as §1, §2
In data set [3] the test system is MRSA strain 2468. As to the kind of experiment: Agar well diffusion assay. In kind it is cell-based, Staphylococcus aureus. The conditions noted are these: 100 µL CFS of 3-day culture in 9 mm wells, controls 30 µg, MH agar, 37 °C, 18 h, mean ± SD, n = 3. The protocol: as §1, §2
In data set [4] the test system is S. aureus TISTR 517. In words: Agar well diffusion assay. Format: cell-based, Staphylococcus aureus. To be noted: 100 µL CFS of 3-day culture in 9 mm wells, controls 30 µg, MH agar, 37 °C, 18 h, mean ± SD, n = 3. How it is done:
as §1, §2

In data set [5] the test system is MRSA strain 1096. As to the kind of experiment: microbe, parasite or virus in culture. In kind it is cell-based, Staphylococcus aureus. To be noted: Staphylococcus aureus, MRSA, 24 h. The protocol:
(§3) The MIC and MBC of the purified peptide of NNS4-3 were determined against various strains of S. aureus. The broth microdilution method followed the guidance provided by the Clinical and Laboratory Standards Institute (CLSI). Pathogenic bacteria, such as S. aureus TISTR 517 and MRSA strains 142, 1096, and 2468, were used as test strains and cultured on MH agar at 37 °C for 18 h. A single colony of each tested bacterium was suspended in 0.85% NaCl until its turbidity reached an OD of 0.1 at 625 nm (1 × 10^8 CFU/mL). The bacterial cells were diluted to 5 × 10^6 CFU/mL using cation-adjusted Mueller Hinton broth (CAMHB). The diluted cell suspension (10 µL) was transferred to each well of a 96-well plate. With a total volume of 100 µL in each well, the purified AMP was added to each well to obtain final concentrations between 0.125 and 64 µg/mL. Standard antibiotics (vancomycin and cefoxitin) and antibiotic-free samples were used as positive and negative controls, respectively. The 96-well plate was incubated at 37 °C for 24 h. The experiment was carried out in triplicate for each strain. […] Subsequently, 100 µL of each dilution was spread on MH agar and then incubated at 37 °C for 24 h. The MBC was identified as the lowest concentration at which no bacterial colony growth was observed on the plate.

In data set [6] the test system is MRSA strain 142. As to the kind of experiment: microbe, parasite or virus in culture. The conditions noted are these: Staphylococcus aureus, MRSA, 24 h. In kind it is cell-based, Staphylococcus aureus. How it is done: as §3
Data set [7] concerns MRSA strain 2468. In words: microbe, parasite or virus in culture. Format: cell-based, Staphylococcus aureus. To be noted: Staphylococcus aureus, MRSA, 24 h. How it is done:
as §3

The test system of data set [8] is S. aureus TISTR 517. In words: microbe, parasite or virus in culture. Format: cell-based, Staphylococcus aureus. To be noted: Staphylococcus aureus. The protocol:
as §3

Data set [9] relates to MRSA strain 2468. In words: SEM of treated cells (morphological changes). In kind it is cell-based, Staphylococcus aureus. To be noted: 1× MIC, 18 h incubation, 20,000× magnification. How it is done: (§4) The treatment effect of NNS4-3 AMP on tested bacterial cells was investigated by observing morphological changes under SEM. S. aureus TISTR 517 and MRSA strain 2468 were precultured in MH broth for 18 h before being centrifuged to harvest the cell pellet. Cell pellets of both strains were washed with 0.85% sterile NaCl solution 3 times to remove exopolysaccharide. The washed cells were then dispersed in CAMHB to adjust cell turbidity to 0.1 OD at 625 nm. The prepared cells were diluted to 5 × 10^5 CFU/mL with CAMHB before being treated with NNS4-3 AMP. […] The sample for SEM micrography was prepared by fixing the bacterial sample in 2.5% glutaraldehyde in 0.1 M phosphate buffer pH 7.2 for 24 h before ethanol dehydration of the sample. The complete ethanol removal from the prepared sample was conducted by a critical point drying machine (Quorum Technologies Ltd., Lewes, East Sussex, UK).

Data set [10] has as its system S. aureus TISTR 517. In words: SEM of treated cells (morphological changes). Format: cell-based, Staphylococcus aureus. To be noted: 1× MIC, 18 h incubation, 20,000× magnification. The protocol:
as §4

The subject of data set [11] is Bacillus paralicheniformis NNS4-3. In words: Antibiotic susceptibility test of NNS4-3 (disc diffusion). To be noted: disc diffusion on MH agar, 30 °C, 24 h, triplicate; result in words (Figure S1). In kind it is cell-based. The protocol: The susceptibility of NNS4-3 to the standard antibiotics was studied by a disc diffusion assay. The isolate was inoculated at 30 °C with shaking at 150 rpm for 24 h in ZM broth. The culture was adjusted to 0.1 OD at 625 nm before being spread onto the MH agar. The antibiotic discs (Oxoid Ltd., Hampshire, UK) of ciprofloxacin (5 µg), piperacillin (100 µg) combined with tazobactam (10 µg), imipenem (10 µg), ceftriaxone (30 µg), cefoxitin (30 µg), doxycycline (30 µg), vancomycin (30 µg), erythromycin (15 µg), and gentamicin (10 µg) were placed on the culture-seeded agar and then incubated at 30 °C for 24 h. The susceptibility tests were conducted in triplicate. The inhibition zones were presented as mean ± SD.

For data set [12] the following is noted: bacitracin from Bacillus paralicheniformis UBBLi30, ref [42], cited from earlier work.
The next data set has as its system MSSA strain RN4420. To be noted: ref [41]; cited from earlier work. An excerpt: The literature search could support the observed difference in MIC between MSSA and MRSA strains.
The next data set relates to MRSA strain MW2. To be noted: ref [41]; cited from earlier work.
[13] abbreviates: broth microdilution, CAMHB, 37 °C, 0.125-64 µg/mL, triplicate, read-out: MIC.

As to `CO[C@@]1(NC(=O)Cc2cccs2)C(=O)N2C(C(=O)O)=C(COC(N)=O)CS[C@@H]21` [Cefoxitin], the “Zone of Inhibition” value was found to be 0.00 ± 0.00 mm in the data set on MRSA strain 1096 [1], 0.00 ± 0.00 mm in the data set on MRSA strain 142 [2], 0.00 ± 0.00 mm with MRSA strain 2468 [3] and 35.87 ± 0.46 mm in the data set on S. aureus TISTR 517 [4]. The MIC in the data set with MRSA strain 1096 [5] (setting [13]) was more than 64 µg/mL; in the data set on MRSA strain 142 [6] (setting [13]), more than 64 µg/mL; in the data set with MRSA strain 2468 [7] (setting [13]), more than 64 µg/mL; in the data set on S. aureus TISTR 517 [8] (TISTR517, broth microdilution, CAMHB, 37 °C, 24 h, 0.125-64 µg/mL, triplicate, read-out: MIC) it was 2 µg/mL (≈ 4.68 µM). In the data set with S. aureus TISTR 517 [8] (TISTR517, plated on MH agar after MIC, 37 °C, 24 h, triplicate, read-out: MBC), the MBC came out at 2 µg/mL (≈ 4.68 µM). Besides, the “morphological changes under SEM” value in the data set with MRSA strain 2468 [9] is reported as “good tolerance”; in the data set on S. aureus TISTR 517 [10], “cellular lysis”. For the same compound, in [11], the “antibiotic susceptibility of the NNS4-3 isolate” value (from here on “antibiotic susceptibility”) was “moderate to high susceptibility”.

As to `CN[C@H](CC(C)C)C(=O)N[C@H]1C(=O)N[C@@H](CC(N)=O)C(=O)N[C@H]2C(=O)N[C@H]3C(=O)N[C@H](C(=O)N[C@H](C(=O)O)c4cc(O)cc(O)c4-c4cc3ccc4O)[C@H](O)c3ccc(c(Cl)c3)Oc3cc2cc(c3O[C@@H]2O[C@H](CO)[C@@H](O)[C@H](O)[C@H]2O[C@H]2C[C@](C)(N)[C@H](O)[C@H](C)O2)Oc2ccc(cc2Cl)[C@H]1O` [Vancomycin], the “Zone of Inhibition” value with MRSA strain 1096 [1] was found to be 24.38 ± 0.51 mm; with MRSA strain 142 [2], 24.13 ± 1.27 mm; in the data set on MRSA strain 2468 [3], 24.64 ± 1.02 mm; in the data set with S. aureus TISTR 517 [4], 23.37 ± 1.27 mm. In addition, the MBC in the data set on MRSA strain 1096 [5] came out at 2 µg/mL (≈ 1.38 µM); against MRSA strain 142 [6], 2 µg/mL (≈ 1.38 µM); in the data set on MRSA strain 2468 [7], 2 µg/mL (≈ 1.38 µM); in the data set on S. aureus TISTR 517 [8] (TISTR517, 24 h), 2 µg/mL (≈ 1.38 µM). In addition, the MIC in the data set on MRSA strain 1096 [5] stood at 2 µg/mL (≈ 1.38 µM); in the data set on MRSA strain 142 [6], 2 µg/mL (≈ 1.38 µM); against MRSA strain 2468 [7], 2 µg/mL (≈ 1.38 µM); in the data set with S. aureus TISTR 517 [8] (TISTR517, 24 h) it was 2 µg/mL (≈ 1.38 µM). The “morphological changes under SEM” value is listed as “irregular shape” in the data set on MRSA strain 2468 [9] and “cellular lysis” in the data set on S. aureus TISTR 517 [10]. Also, the “antibiotic susceptibility” value in [11] is recorded as “moderate to high susceptibility”.

On to `CO/N=C(\C(=O)N[C@@H]1C(=O)N2C(C(=O)O)=C(CSc3nc(=O)c(=O)[nH]n3C)CS[C@H]12)c1csc(N)n1` [ceftriaxone], for which the “antibiotic susceptibility” value in [11] is “tolerated”.

Take `O=C(O)c1cn(C2CC2)c2cc(N3CCNCC3)c(F)cc2c1=O` [ciprofloxacin]: in data set [11], the “antibiotic susceptibility” value is reported as “high potency inhibition”.

As to `C[C@H]1c2cccc(O)c2C(=O)C2=C(O)[C@]3(O)C(=O)C(C(N)=O)=C(O)[C@@H](N(C)C)[C@@H]3[C@@H](O)[C@@H]21` [doxycycline], the “antibiotic susceptibility” value in data set [11] is reported as “moderate to high susceptibility”.

Consider `CC[C@H]1OC(=O)[C@H](C)[C@@H](O[C@H]2C[C@@](C)(OC)[C@@H](O)[C@H](C)O2)[C@H](C)[C@@H](O[C@@H]2O[C@H](C)C[C@H](N(C)C)[C@H]2O)[C@](C)(O)C[C@@H](C)C(=O)[C@H](C)[C@@H](O)[C@]1(C)O` [erythromycin], for which the “antibiotic susceptibility” value in [11] was “highest susceptibility”.

For `CNC(C)C1CCC(N)C(OC2C(N)CC(N)C(OC3OCC(C)(O)C(NC)C3O)C2O)O1` (stereo not shown) [gentamicin], in data set [11], the “antibiotic susceptibility” value is listed as “moderate to high susceptibility”.

Take `C[C@@H](O)[C@H]1C(=O)N2C(C(=O)O)=C(SCCN=CN)C[C@H]12` [imipenem]: in [11], the “antibiotic susceptibility” value is “high potency inhibition”.

Turning to “LCLEIK[Orn]IFHDN [bacitracin, AMP constructed by non-ribosomal peptide synthesis; literature values]”, in data set [12] (autoclaving for 15 min), the activity after autoclaving is given as 80%. For the same compound, the “activity at pH 14” value in data set [12] (pH 14, 1 h) was “lost”. The MIC in the data set with MSSA strain RN4420 is 64 µg/mL; with MRSA strain MW2, 32 µg/mL.
